Experimental data: patent US20020055528A1, “Artemisinin analogs having antimalarial, antiproliferative, and antitumor activities and chemoselective methods of making the same” (priority 1999, published 2002)
Entries after “also recorded” stand apart in the source; their conditions may differ. Where two headings read alike, the source gives them in different places.

Key:
60 cell line panel = assay: NCI 60 cell line screen (SRB), whole panel; assay type: cell-based; details: for MG MID of Log10GI50 (Table IV) / Delta of Log10GI50 (Table IV) / Range of Log10GI50 (Table IV): Table IV (LC50); for MG MID of Log10GI50 (Table IV) / MG MID of Log10GI50 / MG MID of Log10TGI: mean over the panel; for Delta of Log10GI50 (Table IV) / Range of Log10GI50 (Table IV) / Delta of Log10GI50 / Delta of Log10TGI / Range of Log10GI50 / Range of Log10TGI: panel summary; for potency in words, compared with artemisinin and paclitaxel: Tables II, III and IV
Method: (§1) The screening assay is performed on 96-well microtitre plates. Relatively high initial inoculation densities are used, in order to permit measurement of “time-zero” values and to enhance the screen's ability to detect and provide some differentiation between antiproliferative and cytotoxic response parameters. […] The inoculated microtitre plates are pre-incubated for 24 hours at 37θC prior to drug additions. The five drug dilutions tested routinely range from 10^−4 to 10^−8 molar. Higher or lower concentration ranges may be selected on a nonroutine basis if appropriate solubility and/or prior biological information or other screening data so dictate. Duplicate wells are prepared for all concentrations, (concentration is often denoted by placing brackets around a number); “time-zero” and “no drug” controls are also provided for each test. The minimum amount of compound required for a one-time evaluation in the routine screen can be calculated from the knowledge that each test requires a total of approximately 40 ml (0.04 liter) of cell culture medium containing the highest desired drug concentration. Thus, the amount (grams) of sample required (assuming an upper test concentration limit of 10^−4 M) is: molecular weight of compound×[…]. After a 48 hour incubation (37θC) with the test compound, the cells are fixed in situ to the bottoms of the microtitre wells by addition of 50 ul of either 50% trichloroacetic acid (for adherent cell lines) or 80% trichloroacetic acid (for settled cell suspension lines), followed by incubation for 60 minutes at 4θC. The cellular protein in each well is assayed using a sulforhodamine B (SRB) stain procedure. Briefly, after discarding the supernatants, the microtitre plates are washed 5 times with deionized water and air-dried. One hundred microliters of SRB solution (0.4% w/v in 1% acetic acid) is added to each microtitre well and incubated for 10 minutes at room temperature. Unbound SRB is removed by washing 5 times with 1 % acetic acid. The plates are air-dried, the bound stain is solubilized with Tris buffer, and the optical densities read at 515 nm. SRB is a bright pink anionic dye which, in dilute acetic acid, binds electrostatically to the basic amino acids of TCA-fixed cells. Cryopreserved master stocks of all the lines are maintained, and cultures used for screening are replaced from the master stock after no more than twenty passages in the screening laboratory. The cell line panel consists of 60 lines, organized into nine, disease-related subpanels including leukemia, non-small-cell lung cancer, colon, CNS, melanoma, ovarian, renal, prostate and breast cancers.
(§2) The response parameters G150 and LC50 are interpolated values representing the concentrations at which the percentage growth (PG) is +50 and −50, respectively:
(§3) GI50 is the concentration for which the PG=+50. At this value the increase from time tzero, in the number or mass of cells in the test well is only 50% as much as the corresponding increase in the control well during this period of the experiment, see Table II. A drug effect of this intensity is interpreted as primary growth inhibition.
(§4) TGI is the concentration for which PG=0. At this value the number or mass of cells in the well at the end of the experiment equals the number or mass of cells in the well at time tzero, see Table III. A drug effect of this intensity is regarded as cytostasis.
(§5) LC50 is the concentration for which the PG=−50. At this value, the number or mass of cells in the test well at the end of the experiment is half that at time tzero, see Table IV. This is interpreted as cytotoxicity.

MOLT-4 = details: for Log10TGI: PG=0
Method: as §1, §2, §3, §4, §5

RXF 393 = assay: NCI 60 cell line screen (SRB), Renal Cancer; assay type: cell-based; details: for Log10TGI: PG=0
HOP-62 = assay: NCI 60 cell line screen (SRB), Non-Small Cell Lung Cancer; assay type: cell-based; details: for Log10TGI: PG=0
SR = assay: NCI 60 cell line screen (SRB), Leukemia; assay type: cell-based; details: for Log10TGI: PG=0
ACHN = assay: NCI 60 cell line screen (SRB), Renal Cancer; assay type: cell-based; details: for Log10TGI: PG=0
MDA-N = assay: NCI 60 cell line screen (SRB), Breast Cancer; assay type: cell-based; details: for Log10TGI: PG=0
[1] = system: murine keratinocyte cell line PE; assay: Growth inhibition of PE cells, MTT assay; assay type: cell-based; details: 100 nanomolar; compared with calcitriol; FIG. 5
Method: To determine the inhibitory effect of the compositions of the present invention on cell proliferation, screening assays were performed on a murine keratinocyte cell line PE. Cell line PE was chosen for its particular sensitivity to the induction of omithine decarboxylase (ODC) activity by the extensively characterized tumor promoter TPA. Cell line PE was derived from a papilloma-induced in female SENCAR mice by a standard skin initiation/promotion protocol, see Yuspa, S. H., et al., Carcinogenesis, 7:949-958 (1986). PE cell culture medium consisted of Eagle's minimal essential medium without calcium chloride (Whittaker Bioproducts, Walkersville, Mass.) supplemented with 8% chelexed fetal calf serum and 1% antibiotic-antimycotic (Gibco BRL) and the addition of CaCI2 to 0.05 mM Ca^++
MTT [3-(4,5-dimethylthiazol-2-yl)-2,5-diphenyltetraxolium bromide] was purchased from Sigma Chemical Co. (St. Louis, Mo.), and TPA was supplied by L.C. Services (Woburn, Mass.). L-[^14C]omithine ([…]) was from Amersham/Searle Corp. (Arlington Heights, Ill.). Chemical solvents used in all assays of biological activity were of the highest grade commercially available.
Growth curves, shown in FIG. 5, for PE cells treated with calcitriol and the C-10 carbon-substituted dimers VII-f, VII-g and VII-h generated by assay for the reduction of the tetrazolium-based compound MTT, see Charmichael, et al., Cancer Res., 47:936-942 (1987). A mitochondrial dehydrogenase reduces MTT to a blue formazan product with an absorbance maximum of 505 nm in DMSO; the number of viable cells can thus be determined spectrophotometrically. PE cells were seeded at a density of 5,000 cells/well in 50 IL of medium into 96-well microtiter plates. Twelve hours later, the medium was removed, and cells were treated with 100 μL of fresh medium into which the appropriate amount of calcitriol or analog dissolved in dimethyl sulfoxide (DMSO) had been added, with the concentration of DMSO held constant at 0.1 %. […] At 24-hour intervals following the initial treatment of the cells with compounds, 0.1 mg (50 μL of a 2 mg/mL solution) of MTT was added to each well. After 4 hours, the MTT was removed and DMSO added to dissolve the blue formazan dye. Using a microtiter plate reader, the A505 was then determined and cell number calculated from blank-subtracted absorbance values.

[2] = Table IV (LC50, PG=−50), MOLT−4

Structure (SMILES) | MG MID of Log10GI50 (Table IV) (60 cell line panel) [log10M] | Delta of Log10GI50 (Table IV) (60 cell line panel) | Range of Log10GI50 (Table IV) (60 cell line panel) | potency in words, compared with artemisinin and paclitaxel (60 cell line panel) | MG MID of Log10GI50 (60 cell line panel) [log10M] | MG MID of Log10TGI (60 cell line panel) [log10M] | Delta of Log10GI50 (60 cell line panel) | Delta of Log10TGI (60 cell line panel) | Range of Log10GI50 (60 cell line panel) | Range of Log10TGI (60 cell line panel) | drug concentration for cytotoxicity (percentage growth −50) (MOLT-4) | drug concentration for primary growth inhibition (percentage growth +50) (MOLT-4; MOLT-4, FIGS. 6a-6e) | Log10GI50 (MOLT-4; MOLT-4, PG=+50) [log10M] | Log10TGI (MOLT-4; MOLT−4) [log10M] | Log10GI50 (MOLT-4; [2]) [log10M] | Log10TGI (RXF 393) [log10M] | Log10GI50 (RXF 393; PG=+50) [log10M] | Log10GI50 (RXF 393; Table IV (LC50, PG=−50)) [log10M] | Log10TGI (HOP-62) [log10M] | Log10GI50 (HOP-62; PG=+50) [log10M] | further results
CC1=C(C=Cc2cccc(C=CC3=C(C)C4CCC(C)C5CCC6(C)OOC45C(O3)O6)c2)OC2OC3(C)CCC4C(C)CCC1C24OO3 (stereo not drawn) [VII-g] | −4.02 | 0.94 | 0.96 | in most instances are as potent and in some instances more potent than paclitaxel; also recorded: more potent than artemisinin and equivalent to and in many instances higher in potency than paclitaxel | −6.58 | −4.32 | 0.93 | 2.51 | 2.60 | 2.82 | greater than 10^−4 M | > 10^−7 molar | −7.30 | −7.30 | >−4.00 | >−4.00 | −5.80 | >−4.00 | >−4.00 | −6.45 | Log10GI50 (HOP-62; Table IV (LC50, PG=−50)): >−4.00 log10M; Log10TGI (SR): −7.42 log10M; Log10GI50 (SR; PG=+50): −7.42 log10M; Log10GI50 (SR; Table IV (LC50, PG=−50)): >−4.00 log10M; Log10TGI (ACHN): >−4.00 log10M; Log10 GI50 or LC50 (see conditions) (ACHN; PG=+50): −6.37 log10M; Log10 GI50 or LC50 (see conditions) (ACHN; Table IV (LC50, PG=−50)): >−4.00 log10M; Log10TGI (MDA-N): −4.83 log10M; Log10GI50 (MDA-N; PG=+50): −6.82 log10M; Log10GI50 (MDA-N; Table IV (LC50, PG=−50)): >−4.00 log10M; antiproliferative activity in words [1]: at least as antiproliferative as calcitriol
CC1=C(C=Cc2cccc(C=CC3=C(C)C4CCC(C)C5CCC6(C)OOC45C(O3)O6)c2)OC2OC3(C)CCC4C(C)CCC1C24OO3 (stereo not drawn) [VII-f] | −4.23 | 1.70 | 1.93 | in most instances are as potent and in some instances more potent than paclitaxel; also recorded: more potent than artemisinin and equivalent to and in many instances higher in potency than paclitaxel | −5.73 | −4.23 | 0.98 | 1.70 | 2.71 | 1.93 | greater than 10^−4 M | greater than 10^−6 molar | −6.23 | −6.23 | >−4.00 | >−4.00 | −5.91 | >−4.00 | >−4.00 | −5.77 | drug concentration for cytostasis (percentage growth 0) (MOLT-4; MOLT-4, FIGS. 6a-6e): approximately 10^−4 M; Log10GI50 (HOP-62; Table IV (LC50, PG=−50)): >−4.00 log10M; Log10TGI (SR): −6.19 log10M; Log10GI50 (SR; PG=+50): −6.19 log10M; Log10GI50 (SR; Table IV (LC50, PG=−50)): >−4.00 log10M; Log10TGI (ACHN): >−4.00 log10M; Log10 GI50 or LC50 (see conditions) (ACHN; PG=+50): −5.71 log10M; Log10 GI50 or LC50 (see conditions) (ACHN; Table IV (LC50, PG=−50)): >−4.00 log10M; Log10TGI (MDA-N): −4.18 log10M; Log10GI50 (MDA-N; PG=+50): −5.74 log10M; Log10GI50 (MDA-N; Table IV (LC50, PG=−50)): >−4.00 log10M; antiproliferative activity in words [1]: at least as antiproliferative as calcitriol
